Usually pKi stands for −log10 of the Ki, conventionally taken in molar units. Read a low pKi as a large Ki.

In the assay the target is T1, histone deacetylase 3 (HDAC3) (Homo sapiens, UniProt O15379).
T1 construct: full length human HDAC3 (NP_003874.2) with a C-terminal FLAG tag, in complex with human NCOR2 amino acids 395–489 with an N-terminal 6xHis tag; with NCOR2 (SMRT) amino acids 395–489
The assay is described as follows: Fluor de Lys fluorescent deacetylase assay, fractional activity vs [10-HDA]. It is filed as biochemical.

Each structure is given as a SMILES string. pKi: −log10 of the molar value.

T1 sequence (O15379 whole entry, the tested form may be a part): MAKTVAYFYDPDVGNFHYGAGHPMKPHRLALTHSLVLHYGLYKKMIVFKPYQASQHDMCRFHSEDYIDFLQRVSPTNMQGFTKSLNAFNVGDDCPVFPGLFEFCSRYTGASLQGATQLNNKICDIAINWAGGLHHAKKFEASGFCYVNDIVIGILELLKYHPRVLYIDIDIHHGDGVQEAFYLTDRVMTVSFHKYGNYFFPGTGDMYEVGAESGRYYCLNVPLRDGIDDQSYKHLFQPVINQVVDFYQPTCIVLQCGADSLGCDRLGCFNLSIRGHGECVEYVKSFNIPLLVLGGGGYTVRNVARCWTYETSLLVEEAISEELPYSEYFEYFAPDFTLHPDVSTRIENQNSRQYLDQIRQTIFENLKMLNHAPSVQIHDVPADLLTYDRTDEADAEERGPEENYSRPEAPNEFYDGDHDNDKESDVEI
T1 sequence (Q9Y618 395-489 partner): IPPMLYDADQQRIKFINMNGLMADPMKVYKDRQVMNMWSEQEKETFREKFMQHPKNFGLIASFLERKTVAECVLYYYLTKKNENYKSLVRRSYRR

In turn, `O=C(O)/C=C/CCCCCCCO` [10-HDA, 10-hydroxy-2E-decenoic acid] had a pKi of 2.27.

These data come from PMC6287826, “Regulation of histone deacetylase 3 by metal cations and 10-hydroxy-2E-decenoic acid: Possible epigenetic mechanisms of queen-worker bee differentiation” (PLoS ONE, 2018).
